Results reported in patent publication US20250064941A1, “SIGLEC LIGANDS, CONJUGATES, AND METHODS OF USE THEREOF” (Osprey Biopharmaceuticals, Inc., priority 2023, published 2025).

Tests used:
[1] = molecular target: T1, human Siglec-2/CD22 protein (Homo sapiens, UniProt P20273); assay: SPR binding affinity to human CD22; conditions: steady-state analysis
T1 construct: purchased Acro Biosystems SI2-H82E3
T1 sequence (P20273 20-847): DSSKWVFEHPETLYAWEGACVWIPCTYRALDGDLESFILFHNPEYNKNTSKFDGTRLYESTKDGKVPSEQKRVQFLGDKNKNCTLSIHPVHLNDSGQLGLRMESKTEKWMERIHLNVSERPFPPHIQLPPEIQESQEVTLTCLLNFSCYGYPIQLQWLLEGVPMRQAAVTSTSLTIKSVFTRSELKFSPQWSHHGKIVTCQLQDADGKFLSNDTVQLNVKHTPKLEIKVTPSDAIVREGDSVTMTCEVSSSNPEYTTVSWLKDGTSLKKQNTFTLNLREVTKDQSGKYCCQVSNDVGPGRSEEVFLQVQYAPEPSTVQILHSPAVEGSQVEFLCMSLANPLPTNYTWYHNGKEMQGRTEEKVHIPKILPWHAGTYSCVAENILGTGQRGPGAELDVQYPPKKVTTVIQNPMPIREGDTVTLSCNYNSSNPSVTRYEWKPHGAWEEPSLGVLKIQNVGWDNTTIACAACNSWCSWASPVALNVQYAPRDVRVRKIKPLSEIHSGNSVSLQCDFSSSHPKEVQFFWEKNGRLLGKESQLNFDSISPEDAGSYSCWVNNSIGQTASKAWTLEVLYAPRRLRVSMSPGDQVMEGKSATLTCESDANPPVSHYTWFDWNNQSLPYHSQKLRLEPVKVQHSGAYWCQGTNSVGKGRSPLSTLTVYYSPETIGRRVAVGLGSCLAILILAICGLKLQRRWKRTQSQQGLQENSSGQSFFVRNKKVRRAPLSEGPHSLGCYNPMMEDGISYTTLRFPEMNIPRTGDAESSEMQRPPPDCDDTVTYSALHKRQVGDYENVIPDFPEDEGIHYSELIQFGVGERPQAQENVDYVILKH
Description: (§1) Prior to immobilization, CD22 proteins were treated with SialoExo (Genovis, Cat #G1-SM1-020) for 4 hours at 37° C. to remove native sialic acid residues.
(§2) Capture of biotinylated CD22 constructs was performed using a Cytiva SA chip (BR100398) on a Biacore 8K instrument.
(§3) Binding experiments of Siglec-ligand conjugated proteins or Siglec ligand compounds were performed on the surfaces prepared above in 10 mM HEPES, 150 mM NaCl, 0.05% Tween-20, pH 7.5, 1% DMSO as the running buffer. […] The compounds were then allowed to dissociate from the surface for 120 seconds. […] Solvent correction was performed using 0.5, 1, 1.5, and 2% DMSO spike into running buffer without DMSO. […] Data was analyzed using steady-state analysis in Biacore Insight Evaluation Software, version 3.0 for Siglec ligand compounds.

[2] = molecular target: T2, mouse Siglec-2-Fc-Avi (CD22) (Mus musculus, UniProt P35329); assay: SPR binding affinity to mouse CD22; conditions: steady-state analysis
T2 construct: made in house
T2 sequence (P35329 22-708 limits assumed): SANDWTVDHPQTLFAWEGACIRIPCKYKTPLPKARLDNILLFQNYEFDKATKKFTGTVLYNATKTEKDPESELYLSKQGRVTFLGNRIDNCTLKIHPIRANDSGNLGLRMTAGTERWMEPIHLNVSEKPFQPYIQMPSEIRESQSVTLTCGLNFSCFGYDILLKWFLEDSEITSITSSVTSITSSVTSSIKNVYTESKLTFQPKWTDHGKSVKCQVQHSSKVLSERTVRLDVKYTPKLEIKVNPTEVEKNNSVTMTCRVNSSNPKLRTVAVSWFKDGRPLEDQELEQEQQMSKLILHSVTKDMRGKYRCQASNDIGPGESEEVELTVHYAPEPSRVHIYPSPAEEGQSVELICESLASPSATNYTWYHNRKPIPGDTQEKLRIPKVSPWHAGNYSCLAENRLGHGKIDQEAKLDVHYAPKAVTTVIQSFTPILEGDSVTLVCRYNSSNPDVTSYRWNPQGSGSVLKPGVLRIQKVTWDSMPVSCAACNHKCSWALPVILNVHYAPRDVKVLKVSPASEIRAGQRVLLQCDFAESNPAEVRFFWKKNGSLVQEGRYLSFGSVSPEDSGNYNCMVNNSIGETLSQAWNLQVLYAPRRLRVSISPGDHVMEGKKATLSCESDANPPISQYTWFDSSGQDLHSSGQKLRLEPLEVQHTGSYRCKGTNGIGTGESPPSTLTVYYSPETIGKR
Description: as §1, §2, §3

Structure (SMILES)	Kd [1]	Kd [2]
C#CCOCCOCCNc1c(NCCCCCCO[C@]2(C(=O)O)C[C@H](O)[C@@H](NC(=O)CO)[C@H]([C@H](O)[C@H](O)CNC(=O)c3ccccc3)O2)c(=O)c1=O [Compound 230, (2R,4S,5R,6R)-6-((1R,2R)-3-benzamido-1,2-dihydroxypropyl)-2-((6-((3,4-dioxo-2-((2-(2-(prop-2-yn-1-yloxy)ethoxy)ethyl)amino)cyclobut-1-en-1-yl)amino)hexyl)oxy)-4-hydroxy-5-(2-hydroxyacetamido)tetrahydro-2H-pyran-2-carboxylic acid]	1 to 10 µM	1 to 10 µM
CC(=O)NCCOCCOCCOCCOCCNc1c(NCCCCCCO[C@]2(C(=O)O)C[C@H](O)[C@@H](NC(C)=O)[C@H]([C@H](O)[C@H](O)CNC(=O)Cc3ccc(Cl)cc3)O2)c(=O)c1=O [Compound 248, (2R,4S,5R,6R)-5-acetamido-6-((1R,2R)-3-(2-(4-chlorophenyl)acetamido)-1,2-dihydroxypropyl)-2-((6-((3,4-dioxo-2-((2-oxo-6,9,12,15-tetraoxa-3-azaheptadecan-17-yl)amino)cyclobut-1-en-1-yl)amino)hexyl)oxy)-4-hydroxytetrahydro-2H-pyran-2-carboxylic acid]	< 1 µM	1 to 10 µM
CC(=O)NCCOCCOCCOCCOCCC(=O)NCCCCCO[C@]1(C(=O)O)C[C@H](O)[C@@H](NC(C)=O)[C@H]([C@H](O)[C@H](O)CNC(=O)Cc2ccc(Cl)cc2)O1 [Compound 249, (2R,4S,5R,6R)-5-acetamido-6-((1R,2R)-3-(2-(4-chlorophenyl)acetamido)-1,2-dihydroxypropyl)-2-((2,18-dioxo-6,9,12,15-tetraoxa-3,19-diazatetracosan-24-yl)oxy)-4-hydroxytetrahydro-2H-pyran-2-carboxylic acid]	1 to 10 µM	1 to 10 µM
CC(=O)NCCOCCOCCOCCOCc1cn(CCCCCCO[C@]2(C(=O)O)C[C@H](O)[C@@H](NC(C)=O)[C@H]([C@H](O)[C@H](O)CNC(=O)Cc3ccc(Cl)cc3)O2)nn1 [Compound 250, (2R,4S,5R,6R)-5-acetamido-6-((1R,2R)-3-(2-(4-chlorophenyl)acetamido)-1,2-dihydroxypropyl)-4-hydroxy-2-((6-(4-(15-oxo-2,5,8,11-tetraoxa-14-azahexadecyl)-1H-1,2,3-triazol-1-yl)hexyl)oxy) tetrahydro-2H-pyran-2-carboxylic acid]	< 1 µM	1 to 10 µM
C#CCOCCCCCCS[C@]1(C(=O)O)C[C@H](O)[C@@H](NC(=O)CO)[C@H]([C@H](O)[C@H](O)CNC(=O)c2ccc(Cl)cc2)O1 [Compound 251, (2S,4S,5R,6R)-6-((1R,2R)-3-(4-chlorobenzamido)-1,2-dihydroxypropyl)-4-hydroxy-5-(2-hydroxyacetamido)-2-((6-(prop-2-yn-1-yloxy)hexyl)thio) tetrahydro-2H-pyran-2-carboxylic acid]	1 to 10 µM	1 to 10 µM
C#CCOCCOCCNc1c(NCCCCCCO[C@]2(C(=O)O)C[C@H](O)[C@@H](NC(=O)CO)[C@H]([C@H](O)[C@H](O)CNC(=O)c3ccc(Cl)cc3)O2)c(=O)c1=O [Compound 254, (2R,4S,5R,6R)-6-((1R,2R)-3-(4-chlorobenzamido)-1,2-dihydroxypropyl)-2-((6-((3,4-dioxo-2-((2-(2-(prop-2-yn-1-yloxy)ethoxy)ethyl)amino)cyclobut-1-en-1-yl)amino)hexyl)oxy)-4-hydroxy-5-(2-hydroxyacetamido) tetrahydro-2H-pyran-2-carboxylic acid]	< 1 µM	1 to 10 µM
C#CCOCCCCCCS[C@]1(C(=O)O)C[C@H](O)[C@@H](NC(=O)CO)[C@H]([C@H](O)[C@H](O)CNC(=O)c2cccc(Oc3ccccc3)c2)O1 [Compound 255, (2S,4S,5R,6R)-6-((1R,2R)-1,2-dihydroxy-3-(3-phenoxybenzamido)propyl)-4-hydroxy-5-(2-hydroxyacetamido)-2-((6-(prop-2-yn-1-yloxy)hexyl)thio) tetrahydro-2H-pyran-2-carboxylic acid]	< 1 µM	1 to 10 µM
CC(=O)NCCOCCOCCOCCOCCn1cc(COCCCCCCO[C@]2(C(=O)O)C[C@H](O)[C@@H](NC(=O)CO)[C@H]([C@H](O)[C@H](O)CNC(=O)Cc3ccc(C(F)F)cc3)O2)nn1 [Compound 261, (2R,4S,5R,6R)-6-((1R,2R)-3-(2-(4-(difluoromethyl)phenyl)acetamido)-1,2-dihydroxypropyl)-4-hydroxy-5-(2-hydroxyacetamido)-2-((6-((1-(2-oxo-6,9,12,15-tetraoxa-3-azaheptadecan-17-yl)-1H-1,2,3-triazol-4-yl)methoxy)hexyl)oxy)tetrahydro-2H-pyran-2-carboxylic acid]	< 1 µM	< 1 µM
CC(=O)NCCOCCOCCOCCOCCn1cc(COCCCCCCO[C@]2(C(=O)O)C[C@H](O)[C@@H](NC(=O)CO)[C@H]([C@H](O)[C@H](O)CNC(=O)Cc3ccc(Cl)cc3)O2)nn1 [Compound 262, (2R,4S,5R,6R)-6-((1R,2R)-3-(2-(4-chlorophenyl)acetamido)-1,2-dihydroxypropyl)-4-hydroxy-5-(2-hydroxyacetamido)-2-((6-((1-(2-oxo-6,9,12,15-tetraoxa-3-azaheptadecan-17-yl)-1H-1,2,3-triazol-4-yl)methoxy)hexyl)oxy)tetrahydro-2H-pyran-2-carboxylic acid]	< 1 µM	1 to 10 µM
CC(=O)NCCOCCOCCOCCOCCn1cc(CCCCCCO[C@]2(C(=O)O)C[C@H](O)[C@@H](NC(=O)CO)[C@H]([C@H](O)[C@H](O)CNC(=O)Cc3ccc(Cl)cc3)O2)nn1 [Compound 263, (2R,4S,5R,6R)-6-((1R,2R)-3-(2-(4-chlorophenyl)acetamido)-1,2-dihydroxypropyl)-4-hydroxy-5-(2-hydroxyacetamido)-2-((6-(1-(2-oxo-6,9,12,15-tetraoxa-3-azaheptadecan-17-yl)-1H-1,2,3-triazol-4-yl)hexyl)oxy)tetrahydro-2H-pyran-2-carboxylic acid]	< 1 µM	1 to 10 µM
CC(=O)NCCOCCOCCOCCOCCOC(=O)NCCCCCCO[C@]1(C(=O)O)C[C@H](O)[C@@H](NC(C)=O)[C@H]([C@H](O)[C@H](O)CNC(=O)c2cccc(Cl)c2)O1 [Compound 268, (2R,4S,5R,6R)-5-acetamido-6-((1R,2R)-3-(3-chlorobenzamido)-1,2-dihydroxypropyl)-2-((2,19-dioxo-6,9,12,15,18-pentaoxa-3,20-diazahexacosan-26-yl)oxy)-4-hydroxytetrahydro-2H-pyran-2-carboxylic acid]	1 to 10 µM	> 10 µM
CC(=O)NCCOCCOCCOCCOCCNC(=O)NCCCCCCO[C@]1(C(=O)O)C[C@H](O)[C@@H](NC(C)=O)[C@H]([C@H](O)[C@H](O)CNC(=O)c2cccc(Cl)c2)O1 [Compound 269, (2R,4S,5R,6R)-5-acetamido-6-((1R,2R)-3-(3-chlorobenzamido)-1,2-dihydroxypropyl)-2-((2,19-dioxo-6,9,12,15-tetraoxa-3,18,20-triazahexacosan-26-yl)oxy)-4-hydroxytetrahydro-2H-pyran-2-carboxylic acid]	1 to 10 µM	> 10 µM
